For data set [1], the system named is Rats. The data set is described as follows: Experiment I: rats fed chow supplemented with compound for 6 days; plasma lipids, glucose, food intake. The class given is in vivo. Particulars: 0.1% (w/w) in diet. As for the experimental part:
Rats (n=5 for each treatment group) were fed ad libitum on Purina chow for 6 days, the diet being supplemented with 0.1% (w/w) γ,γ′-methyl substituted α,ω-dioic acids of formula (II) (Ex. 1, Ex. 3, Ex. 4) in the diet. The biological effect in vivo was evaluated by following food intake, plasma triglycerides, plasma cholesterol and plasma glucose.

The test system of data set [2] is Rats. The data set is described as follows: Experiment II: rats fed chow supplemented with compound for 5 days; plasma triglycerides, apo C-III, insulin. The class given is in vivo. As for the experimental part:
(§1) Rats (n=5 for each treatment group) were fed ad libitum on purina chow for 5 days, the diet being supplemented with either γ,γ′-methyl substituted α,ω hexadecanedioic acid (formula (II). Ex. 3) or β,β′-methyl substituted α,ω-hexadecanedioic acid (U.S. Pat. No. 4,634,795) at a dosage of 0.09% (w/w) in the diet. The biological effect in vivo was evaluated by following plasma triglycerides, plasma apolipoprotein(apo)C-III, plasma insulin and the steady state concentrations (Css) of the respective drugs in plasma. Fold efficacy of the γ,γ′-substituted compound (Ex. 3) relative to the β,β′-substituted compound was calculated by normalizing the observed effect by the respective Css attained.

For data set [3], the system named is Rats. The data set is described as follows: Experiment III: conditions as in Experiment II; plasma lipids, apo C-III, glucose, insulin. The class given is in vivo. As for the experimental part:
as §1
Conditions as in Experiment II using α,α′-methyl-substituted α,ω-tetradecanedioic acid.
Fold efficacy represents the respective effect induced by the α,α′-substituted compound (Ex. 5) relative to that of the β,β′-substituted compound.

Setting [4] is: observed effect normalized by respective Css, relative to β,β′-substituted compound.
Setting [5] is: rats, 0.09% (w/w) in diet, 5 days.
[6] abbreviates: effect of α,α′-substituted compound relative to β,β′-substituted compound.
The mark [7] stands for this setting: rats, conditions as in Experiment II.

For the compound `CC(C)(CCCCCCC(C)(C)CCC(=O)O)CCC(=O)O` [Ex. 1, 4,4,11,11-Tetramethyltetradecanedioic Acid], the melting point was in the range of 88 to 89 °C. In addition, in the data set on Rats [1], the Food intake was 18.6 ± 2.1 g/day, the Plasma cholesterol is listed as 64.1 ± 12.0 mg %, the Plasma glucose is recorded as 127.8 ± 6.6 mg % and the Plasma triglycerides worked out at 24.8 ± 3.9 mg %.

As for `CC(C)(CCCCCCCCC(C)(C)CCC(=O)O)CCC(=O)O` [Ex. 3, 4,4,13,13-Tetramethylhexadecanedioic Acid], in the data set with Rats [2] (setting [4]), the “Fold efficacy (γ,γ/β,β), plasma apo C-III” value worked out at 7.7; the “Fold efficacy (γ,γ/β,β), plasma insulin” value was found to be 15.2; the “Fold efficacy (γ,γ/β,β), plasma triglycerides” value came to 8.2. For the same compound, in the data set on Rats [2] (setting [5]), the “Plasma apo C-III” value is 12.0 ± 4.6 mg %, the Plasma insulin is 16 ± 6.1 µU/mL and the Plasma triglycerides turned out to be 19.9 ± 7.4 mg %. Further, in the data set on Rats [1], the Food intake came to 19.3 ± 1.1 g/day, the Plasma cholesterol turned out to be 62.4 ± 13.3 mg %, the Plasma glucose is reported as 138.8 ± 2.7 mg % and the Plasma triglycerides is 28.8 ± 7.4 mg %.

On to `CC(C)(CCCCCCCCCCC(C)(C)CCC(=O)O)CCC(=O)O` [Ex. 4, 4,4,15,15-Tetramethyloctadecanedioic acid], for which the melting point was 71 to 72 °C. Further, in the data set with Rats [1], the Food intake worked out at 19.1 ± 1.2 g/day, the Plasma cholesterol was found to be 56.8 ± 10.8 mg %, the Plasma glucose was found to be 139.0 ± 9.0 mg % and the Plasma triglycerides amounted to 29.3 ± 10.4 mg %.

With `CC(C)(CCCCCCCCCCCCC(C)(C)C(=O)O)C(=O)O` [Ex. 6, 2,2,15,15-Tetramethylhexadecanedioic Acid], in the data set with Rats [3] (setting [6]), the “Fold efficacy (α,α/β,β), plasma apo C-III” value was 3.7; the “Fold efficacy (α,α/β,β), plasma cholesterol” value is recorded as 1.2; the “Fold efficacy (α,α/β,β), plasma glucose” value was determined as 1.1; the “Fold efficacy (α,α/β,β), plasma insulin” value amounted to 1.0. Further, the “Fold efficacy (α,α/β,β), plasma triglycerides” value in the data set with Rats [3] (setting [6]) came out at 1.78. In the data set with Rats [3] (setting [7]), the “Plasma apo C-III” value is listed as 17 ± 14 mg %, the Plasma cholesterol is 69.5 ± 9.7 mg %, the Plasma glucose is recorded as 104 ± 4 mg % and the Plasma insulin was determined as 24.2 ± 7.3 µU/mL. In addition, the Plasma triglycerides in the data set with Rats [3] (rats, conditions as in Experiment II (0.09% w/w in diet, 5 days)) was determined as 44.5 ± 14.0 mg %.

The values above are taken from patent publication US6800772B2, “Carboxylic acids and derivatives thereof and pharmaceutical compositions containing them” (Yissum Research Development Company of the Hebrew …, priority 1997, dated 2004).
